This is an account of results in PMC4501720 (PLoS ONE, 2015).

The experiment relates to whole blood cells of group 3 pigs vaccinated with BCG-pAg85A. It is filed as cell-based, pigs (Sus scrofa domestica).

Regarding “1–20: synthetic overlapping peptide of mature Ag85A, aa 1–20 (FSRPGLPVEYLQVPSPSMGR; UniProt P9WQP3 44-63, looked up, fragment)”, the “IFN-γ levels, BCG / pAg85A animal number 1” value is recorded as less than 5 pg/mL; the “IFN-γ levels, BCG / pAg85A animal number 2” value came out at 305 pg/mL; the “IFN-γ levels, BCG / pAg85A animal number 3” value is less than 5 pg/mL; the “IFN-γ levels, BCG / pAg85A animal number 4” value was less than 5 pg/mL. The “IFN-γ levels, BCG / pAg85A animal number 5” value amounted to 84 pg/mL and the “IFN-γ levels, BCG / pAg85A animal number 6” value is on record as 13,875 pg/mL.

On to “11–30: synthetic overlapping peptide of mature Ag85A, aa 11–30 (LQVPSPSMGRDIKVQFQSGG; UniProt P9WQP3 54-73, looked up, fragment)”, for which the “IFN-γ levels, BCG / pAg85A animal number 1” value is on record as less than 5 pg/mL; the “IFN-γ levels, BCG / pAg85A animal number 2” value is reported as 1,115 pg/mL; the “IFN-γ levels, BCG / pAg85A animal number 3” value is listed as less than 5 pg/mL; the “IFN-γ levels, BCG / pAg85A animal number 4” value is less than 5 pg/mL. Besides, the “IFN-γ levels, BCG / pAg85A animal number 5” value was 80 pg/mL and the “IFN-γ levels, BCG / pAg85A animal number 6” value is given as less than 5 pg/mL.

“21–40: synthetic overlapping peptide of mature Ag85A, aa 21–40 (DIKVQFQSGGANSPALYLLD; UniProt P9WQP3 64-83, looked up, fragment)”: the “IFN-γ levels, BCG / pAg85A animal number 1” value is recorded as less than 5 pg/mL; the “IFN-γ levels, BCG / pAg85A animal number 2” value is listed as 681 pg/mL; the “IFN-γ levels, BCG / pAg85A animal number 3” value is listed as less than 5 pg/mL; the “IFN-γ levels, BCG / pAg85A animal number 4” value came to 128 pg/mL. For the same substance, the “IFN-γ levels, BCG / pAg85A animal number 5” value was found to be 142 pg/mL and the “IFN-γ levels, BCG / pAg85A animal number 6” value was less than 5 pg/mL.

In the case of “35–53: synthetic overlapping peptide of mature Ag85A, aa 35–53 (ALYLLDGLRAQDDFSGWDI; UniProt P9WQP3 78-96, looked up, fragment)”, the “IFN-γ levels, BCG / pAg85A animal number 1” value is listed as 4,594 pg/mL; the “IFN-γ levels, BCG / pAg85A animal number 2” value was 438 pg/mL; the “IFN-γ levels, BCG / pAg85A animal number 3” value came out at 74 pg/mL; the “IFN-γ levels, BCG / pAg85A animal number 4” value is recorded as less than 5 pg/mL. Besides, the “IFN-γ levels, BCG / pAg85A animal number 5” value is recorded as 2,105 pg/mL and the “IFN-γ levels, BCG / pAg85A animal number 6” value is less than 5 pg/mL.

As to “51–70: synthetic overlapping peptide of mature Ag85A, aa 51–70 (WDINTPAFEWYDQSGLSVVM; UniProt P9WQP3 94-113, looked up, fragment)”, the “IFN-γ levels, BCG / pAg85A animal number 1” value was 5,083 pg/mL; the “IFN-γ levels, BCG / pAg85A animal number 2” value is listed as less than 5 pg/mL; the “IFN-γ levels, BCG / pAg85A animal number 3” value is reported as less than 5 pg/mL; the “IFN-γ levels, BCG / pAg85A animal number 4” value is less than 5 pg/mL. Moreover, the “IFN-γ levels, BCG / pAg85A animal number 5” value is 3,125 pg/mL and the “IFN-γ levels, BCG / pAg85A animal number 6” value is listed as less than 5 pg/mL.

Consider “61–80: synthetic overlapping peptide of mature Ag85A, aa 61–80 (YDQSGLSVVMPVGGQSSFYS; UniProt P9WQP3 104-123, looked up, fragment)”, for which the “IFN-γ levels, BCG / pAg85A animal number 1” value was 8,179 pg/mL; the “IFN-γ levels, BCG / pAg85A animal number 2” value was found to be 354 pg/mL; the “IFN-γ levels, BCG / pAg85A animal number 3” value is recorded as 579 pg/mL; the “IFN-γ levels, BCG / pAg85A animal number 4” value was 75 pg/mL. The “IFN-γ levels, BCG / pAg85A animal number 5” value is 3,611 pg/mL and the “IFN-γ levels, BCG / pAg85A animal number 6” value was 444 pg/mL.

“71–90: synthetic overlapping peptide of mature Ag85A, aa 71–90 (PVGGQSSFYSDWYQPACGKA; UniProt P9WQP3 114-133, looked up, fragment)”: the “IFN-γ levels, BCG / pAg85A animal number 1” value is given as 217 pg/mL; the “IFN-γ levels, BCG / pAg85A animal number 2” value is on record as less than 5 pg/mL; the “IFN-γ levels, BCG / pAg85A animal number 3” value is less than 5 pg/mL; the “IFN-γ levels, BCG / pAg85A animal number 4” value is less than 5 pg/mL. In addition, the “IFN-γ levels, BCG / pAg85A animal number 5” value was found to be 289 pg/mL and the “IFN-γ levels, BCG / pAg85A animal number 6” value is less than 5 pg/mL.

In the case of “81–100: synthetic overlapping peptide of mature Ag85A, aa 81–100 (DWYQPACGKAGCQTYKWETF; UniProt P9WQP3 124-143, looked up, fragment)”, the “IFN-γ levels, BCG / pAg85A animal number 1” value is 1,900 pg/mL; the “IFN-γ levels, BCG / pAg85A animal number 2” value is 56 pg/mL; the “IFN-γ levels, BCG / pAg85A animal number 3” value is listed as 2,968 pg/mL; the “IFN-γ levels, BCG / pAg85A animal number 4” value is 170 pg/mL. The “IFN-γ levels, BCG / pAg85A animal number 5” value is reported as 1,547 pg/mL and the “IFN-γ levels, BCG / pAg85A animal number 6” value is on record as less than 5 pg/mL.

Take “91–108: 18-mer peptide spanning the sequence of Ag85B aa 91–108, used instead of Ag85A 91–110 (GCQTYKWETFLTSELPQW; UniProt P9WQP1 131-148, looked up, fragment)”: the “IFN-γ levels, BCG / pAg85A animal number 1” value is listed as less than 5 pg/mL; the “IFN-γ levels, BCG / pAg85A animal number 2” value is given as 2,332 pg/mL; the “IFN-γ levels, BCG / pAg85A animal number 3” value was 2,377 pg/mL; the “IFN-γ levels, BCG / pAg85A animal number 4” value is reported as 308 pg/mL. The “IFN-γ levels, BCG / pAg85A animal number 5” value is 748 pg/mL and the “IFN-γ levels, BCG / pAg85A animal number 6” value is reported as less than 5 pg/mL.

Regarding “101–120: synthetic overlapping peptide of mature Ag85A, aa 101–120 (LTSELPGWLQANRHVKPTGS; UniProt P9WQP3 144-163, looked up, fragment)”, the “IFN-γ levels, BCG / pAg85A animal number 1” value is 150 pg/mL; the “IFN-γ levels, BCG / pAg85A animal number 2” value is 1,646 pg/mL; the “IFN-γ levels, BCG / pAg85A animal number 3” value is given as 1,177 pg/mL; the “IFN-γ levels, BCG / pAg85A animal number 4” value is on record as less than 5 pg/mL. The “IFN-γ levels, BCG / pAg85A animal number 5” value is listed as 319 pg/mL and the “IFN-γ levels, BCG / pAg85A animal number 6” value is on record as less than 5 pg/mL.

In the case of “111–130: synthetic overlapping peptide of mature Ag85A, aa 111–130 (ANRHVKPTGSAVVGLSMAAS; UniProt P9WQP3 154-173, looked up, fragment)”, the “IFN-γ levels, BCG / pAg85A animal number 1” value was 15,124 pg/mL; the “IFN-γ levels, BCG / pAg85A animal number 2” value is 2,879 pg/mL; the “IFN-γ levels, BCG / pAg85A animal number 3” value was 1,415 pg/mL; the “IFN-γ levels, BCG / pAg85A animal number 4” value was determined as 33 pg/mL. Also, the “IFN-γ levels, BCG / pAg85A animal number 5” value is reported as 961 pg/mL and the “IFN-γ levels, BCG / pAg85A animal number 6” value is listed as less than 5 pg/mL.

Consider “121–140: synthetic overlapping peptide of mature Ag85A, aa 121–140 (AVVGLSMAASSALTLAIYHP; UniProt P9WQP3 164-183, looked up, fragment)”, for which the “IFN-γ levels, BCG / pAg85A animal number 1” value is 16,699 pg/mL; the “IFN-γ levels, BCG / pAg85A animal number 2” value is 2,367 pg/mL; the “IFN-γ levels, BCG / pAg85A animal number 3” value is 306 pg/mL; the “IFN-γ levels, BCG / pAg85A animal number 4” value was less than 5 pg/mL. For the same substance, the “IFN-γ levels, BCG / pAg85A animal number 5” value is given as 1,023 pg/mL and the “IFN-γ levels, BCG / pAg85A animal number 6” value is less than 5 pg/mL.

“141–160: synthetic overlapping peptide of mature Ag85A, aa 141–160 (QQFVYAGAMSGLLDPSQAMG; UniProt P9WQP3 184-203, looked up, fragment)”: the “IFN-γ levels, BCG / pAg85A animal number 1” value was 9,718 pg/mL; the “IFN-γ levels, BCG / pAg85A animal number 2” value is listed as 232 pg/mL; the “IFN-γ levels, BCG / pAg85A animal number 3” value is given as 1,330 pg/mL; the “IFN-γ levels, BCG / pAg85A animal number 4” value is listed as 894 pg/mL. Also, the “IFN-γ levels, BCG / pAg85A animal number 5” value was 3,006 pg/mL and the “IFN-γ levels, BCG / pAg85A animal number 6” value stood at 837 pg/mL.

Take “151–170: synthetic overlapping peptide of mature Ag85A, aa 151–170 (GLLDPSQAMGPTLIGLAMGD; UniProt P9WQP3 194-213, looked up, fragment)”: the “IFN-γ levels, BCG / pAg85A animal number 1” value is given as 1,020 pg/mL; the “IFN-γ levels, BCG / pAg85A animal number 2” value is reported as less than 5 pg/mL; the “IFN-γ levels, BCG / pAg85A animal number 3” value is 257 pg/mL; the “IFN-γ levels, BCG / pAg85A animal number 4” value turned out to be 71 pg/mL. Also, the “IFN-γ levels, BCG / pAg85A animal number 5” value worked out at 349 pg/mL and the “IFN-γ levels, BCG / pAg85A animal number 6” value is given as less than 5 pg/mL.

As for “161–180: synthetic overlapping peptide of mature Ag85A, aa 161–180 (PTLIGLAMGDAGGYKASDMW; UniProt P9WQP3 204-223, looked up, fragment)”, the “IFN-γ levels, BCG / pAg85A animal number 1” value is 1,501 pg/mL; the “IFN-γ levels, BCG / pAg85A animal number 2” value was less than 5 pg/mL; the “IFN-γ levels, BCG / pAg85A animal number 3” value is 556 pg/mL; the “IFN-γ levels, BCG / pAg85A animal number 4” value was 37 pg/mL. The “IFN-γ levels, BCG / pAg85A animal number 5” value turned out to be 463 pg/mL and the “IFN-γ levels, BCG / pAg85A animal number 6” value is reported as less than 5 pg/mL.

As to “171–190: synthetic overlapping peptide of mature Ag85A, aa 171–190 (AGGYKASDMWGPKEDPAWQR; UniProt P9WQP3 214-233, looked up, fragment)”, the “IFN-γ levels, BCG / pAg85A animal number 1” value is 328 pg/mL; the “IFN-γ levels, BCG / pAg85A animal number 2” value was less than 5 pg/mL; the “IFN-γ levels, BCG / pAg85A animal number 3” value was 1,066 pg/mL; the “IFN-γ levels, BCG / pAg85A animal number 4” value turned out to be 22 pg/mL. Further, the “IFN-γ levels, BCG / pAg85A animal number 5” value turned out to be 170 pg/mL and the “IFN-γ levels, BCG / pAg85A animal number 6” value is given as less than 5 pg/mL.

For “181–200: synthetic overlapping peptide of mature Ag85A, aa 181–200 (GPKEDPAWQRNDPLLNVGKL; UniProt P9WQP3 224-243, looked up, fragment)”, the “IFN-γ levels, BCG / pAg85A animal number 1” value worked out at 33 pg/mL; the “IFN-γ levels, BCG / pAg85A animal number 2” value is given as less than 5 pg/mL; the “IFN-γ levels, BCG / pAg85A animal number 3” value came out at 8 pg/mL; the “IFN-γ levels, BCG / pAg85A animal number 4” value was found to be 17 pg/mL. The “IFN-γ levels, BCG / pAg85A animal number 5” value was less than 5 pg/mL and the “IFN-γ levels, BCG / pAg85A animal number 6” value is on record as less than 5 pg/mL.

Take “191–210: synthetic overlapping peptide of mature Ag85A, aa 191–210 (NDPLLNVGKLIANNTRVWVY; UniProt P9WQP3 234-253, looked up, fragment)”: the “IFN-γ levels, BCG / pAg85A animal number 1” value turned out to be 266 pg/mL; the “IFN-γ levels, BCG / pAg85A animal number 2” value is recorded as less than 5 pg/mL; the “IFN-γ levels, BCG / pAg85A animal number 3” value stood at 156 pg/mL; the “IFN-γ levels, BCG / pAg85A animal number 4” value was 38 pg/mL. The “IFN-γ levels, BCG / pAg85A animal number 5” value stood at 560 pg/mL and the “IFN-γ levels, BCG / pAg85A animal number 6” value was less than 5 pg/mL.
